Patent US20200291100A1, “TREATMENT OF AGE-RELATED AND MITOCHONDRIAL DISEASES BY INHIBITION OF HIF-1 ALPHA FUNCTION” (President and Fellows of Harvard College, priority 2012, published 2020)

Test system: primary myoblasts
Experiment: NMN in primary myoblasts with NMNAT1 knockdown, qPCR of mitochondrial-encoded genes
Format: cell-based, mouse
Conditions: cells with knockdown of NMNAT1 versus nontargeting shRNA
Text: FIGS. 17A-17L reveal that increasing NAD+ levels rescues age-related mitochondrial and muscle dysfunction through a SIRT1-HIF-1α pathway. FIG. 17A depicts NAD+ levels in gastrocnemius of 3- and 24-month-old mice treated with either the vehicle (PBS) or NMN (n=5, *p<0.05 versus 3-month-old PBS animals, #p<0.05 versus 24-month-old PBS animals). FIG. 17B depicts ATP content in gastrocnemius of 6- and 22-month-old mice treated with either the vehicle (PBS) or NMN (n=6). FIG. 17C depicts expression of mitochondrial-encoded genes (ND1, Cytb, COX1 and ATP6) analyzed by qPCR in gastrocnemius of 6- and 22-month-old mice treated with either the vehicle (PBS) or NMN. Relative expression values were normalized to 6-months old PBS mice (n=6). […] FIG. 17F depicts expression of mitochondrial-encoded genes (ND1, Cytb, COX1 and ATP6) analyzed by qPCR in gastrocnemius of WT and Egln1 KO mice treated with either the vehicle (PBS) or NMN. […] FIG. 17H depicts expression of mitochondrial-enoded genes (ND1, Cytb, COX1 and ATP6) analyzed by qPCR in primary myoblasts WT cells infected with NMNAT1 or nontargeting shRNA treated with either the vehicle (PBS) or NMN. […] FIG. 17I depicts expression of mitochondrial-encoded genes (ND1, Cytb, COX1 and ATP6) analyzed by qPCR in gastrocnemius of WT and SIRT1 KO mice treated with either the vehicle (PBS) or NMN. […] Values are expressed as mean±SEM. […]

NC(=O)c1ccc[n+]([C@@H]2O[C@H](COP(=O)([O-])O)[C@@H](O)[C@H]2O)c1 [NMN, nicotinamide mononucleotide]
ability of NMN to induce the expression of mitochondrial-encoded genes: completely abolishes
